T/C data for 27 molecules are collected here from PubChem BioAssay AID330 (DTP/NCI, 2004).

SMILES strings stand for the structures. Where “and” joins values, the source holds several entries; their conditions need not be identical. Identical values can stand only once. Toxic doses and inconclusive results are not listed. Peptide text beside a SMILES is read from it. * marks the point of attachment. Boc = CC(C)(C)OC(=O)*

This assay deals with P388 leukemia ip, CD2F1 mice, survival T/C. The assay is described as follows: NCI In Vivo Anticancer Drug Screen. Data for tumor model P388 Leukemia (intraperitoneal) in CD2F1 (CDF1) mice. To be noted: endpoint: median survival time, higher = longer survival. In short, it runs like this: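 Mice carrying the transplanted tumor received test compound or vehicle. Survival was recorded in each group, and the value is the treated-group measurement divided by that of the vehicle-treated control group.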

Setting [1] is: dose: 25.0 mg/kg/injection, schedule: Q04DX003 (ip), vehicle: water.
Setting [2] is: dose: 50.0 mg/kg/injection, schedule: Q04DX003 (ip), vehicle: water.
[3] abbreviates: dose: 50.0 mg/kg/injection, schedule: Q01DX005 (ip), vehicle: Klucel (hydroxypropylcellulose) (HPC).
The mark [4] stands for this setting: dose: 100.0 mg/kg/injection, schedule: Q01DX005 (ip), vehicle: Klucel (hydroxypropylcellulose) (HPC).
The mark [5] stands for this setting: dose: 200.0 mg/kg/injection, schedule: Q01DX005 (ip), vehicle: Klucel (hydroxypropylcellulose) (HPC).
Setting [6] is: dose: 50.0 mg/kg/injection, schedule: Q01DX009 (ip), vehicle: saline with Tween-80.
Setting [7] is: dose: 200.0 mg/kg/injection, schedule: Q04DX003 (ip), vehicle: water.
[8] abbreviates: dose: 12.5 mg/kg/injection, schedule: Q01DX009 (ip), vehicle: saline with Tween-80.
Setting [9] is: dose: 25.0 mg/kg/injection, schedule: Q01DX009 (ip), vehicle: saline with Tween-80.
Setting [10] is: dose: 100.0 mg/kg/injection, schedule: Q01DX009 (ip), vehicle: saline with Tween-80.
The mark [11] stands for this setting: dose: 100.0 mg/kg/injection, schedule: Q04DX003 (ip), vehicle: saline.
Setting [12] is: dose: 200.0 mg/kg/injection, schedule: Q04DX003 (ip), vehicle: saline.
Setting [13] is: dose: 400.0 mg/kg/injection, schedule: Q04DX003 (ip), vehicle: saline.
Where [14] appears, read: dose: 200.0 mg/kg/injection, schedule: Q01DX009 (ip), vehicle: saline with Tween-80.
[15] abbreviates: dose: 100.0 mg/kg/injection, schedule: Q01DX009 (ip), vehicle: Klucel (hydroxypropylcellulose) (HPC).
Setting [16] is: dose: 200.0 mg/kg/injection, schedule: Q01DX009 (ip), vehicle: Klucel (hydroxypropylcellulose) (HPC).
[17] abbreviates: dose: 12.5 mg/kg/injection, schedule: Q01DX005 (ip), vehicle: saline with Tween-80.
[18] abbreviates: dose: 25.0 mg/kg/injection, schedule: Q01DX005 (ip), vehicle: saline with Tween-80.
The mark [19] stands for this setting: dose: 50.0 mg/kg/injection, schedule: Q01DX005 (ip), vehicle: saline with Tween-80.
Where [20] appears, read: dose: 200.0 mg/kg/injection, schedule: Q01DX005 (ip), vehicle: saline with Tween-80.
The mark [21] stands for this setting: dose: 100.0 mg/kg/injection, schedule: Q01DX005 (ip), vehicle: saline with Tween-80.

Consider `CC1(C)N=C(N)N=C(N)N1c1cccc(CCCCc2ccc(S(=O)(=O)F)cc2)c1`, for which the T/C (dose: 25.0 mg/kg/injection, schedule: Q04DX003 (ip), vehicle: saline) is 110 % of control.

In the case of `N=[N+]=CC(=O)OCC(N)C(=O)O` (stereo not given), the T/C is, setting by setting: (dose: 2.3 mg/kg/injection, schedule: Q01DX009 (ip), vehicle: water) 118 % of control; (dose: 6.25 mg/kg/injection, schedule: Q04DX003 (ip), vehicle: water) 120 % of control; (dose: 18.8 mg/kg/injection, schedule: Q01DX009 (ip), vehicle: water) 86 % of control and 91 % of control; (dose: 20.0 mg/kg/injection, schedule: Q01DX009 (ip), vehicle: saline) 169 % of control; (dose: 25.0 mg/kg/injection, schedule: Q01DX009 (ip), vehicle: saline) 153 % of control; under setting [1], 157 % of control. Also, the T/C was 107 % of control and 121 % of control (dose: 40.0 mg/kg/injection, schedule: Q01DX009 (ip), vehicle: saline); 166 % of control (dose: 41.7 mg/kg/injection, schedule: Q01DX009 (ip), vehicle: saline); 111 % of control under setting [2].

Turning to `CSCCC(NC(=O)OC(C)(C)C)C(=O)NC(Cc1ccccc1)C(=O)O` (stereo not drawn) (Boc-Met-Phe-OH; configuration not given here), the T/C runs as follows: under setting [3], 100 % of control; under setting [4], 100 % of control; under setting [5], 106 % of control.

For the molecule `C/C=C1/CN2C3CC1C1(C(=O)OC)C(OC(C)=O)[C@]4(C[C@H]21)c1ccccc1N(C)C34` (stereo not given in full), the T/C by setting is: (dose: 3.0 mg/kg/injection, schedule: Q01DX005 (ip), vehicle: Klucel (hydroxypropylcellulose) (HPC)) 94 % of control; (dose: 6.0 mg/kg/injection, schedule: Q01DX005 (ip), vehicle: Klucel (hydroxypropylcellulose) (HPC)) 100 % of control; (dose: 12.0 mg/kg/injection, schedule: Q01DX005 (ip), vehicle: Klucel (hydroxypropylcellulose) (HPC)) 98 % of control; (dose: 24.0 mg/kg/injection, schedule: Q01DX005 (ip), vehicle: Klucel (hydroxypropylcellulose) (HPC)) 106 % of control.

Take `Clc1ccccc1C=Nc1ccccc1`: the T/C under setting [6] is 121 % of control.

Regarding `O=C(O)C(=O)O.O=C(O)C(=O)O.O=C(O)C(=O)O.[Rh]`, the T/C under setting [7] was 95 % of control.

As for `CC(=O)OC1C=CCC2C(=O)C34CC=CC(OC(C)=O)C3(C(=O)c3ccccc3C4=O)C(=O)C12` (stereo not given), the T/C is 103 % of control (dose: 6.25 mg/kg/injection, schedule: Q01DX009 (ip), vehicle: saline with Tween-80); 101 % of control under setting [8]; 120 % of control under setting [9]; 116 % of control under setting [6]; 116 % of control under setting [10].

For `O=C1CN=C(c2ccccc2)c2cc(Cl)ccc2N1CC1CC1`, the T/C under setting [11] is 100 % of control, the T/C under setting [12] is 94 % of control and the T/C under setting [13] is 101 % of control.

Take `COc1cc(C(=O)c2ccc3c(c2)OCO3)cc(OC)c1OC`: the T/C runs as follows: under setting [3], 98 % of control; under setting [4], 93 % of control; under setting [5], 99 % of control.

Turning to `Clc1ccc(OCCC(Cn2ccnc2)c2ccc(Cl)cc2Cl)c(Cl)c1` (stereo not given), the T/C is, setting by setting: under setting [8], 113 % of control; under setting [9], 112 % of control; under setting [6], 101 % of control.

In the case of `COc1ccccc1[B-]12OCC[N+]1(CNC(=O)c1ccccc1O)CCO2` (stereo not given), the T/C by setting is: under setting [3], 102 % of control; under setting [4], 103 % of control; under setting [5], 103 % of control.

Regarding `COc1cccc(/C=N\O)c1`, the T/C by setting is: under setting [10], 104 % of control; under setting [14], 100 % of control; (dose: 400.0 mg/kg/injection, schedule: Q01DX009 (ip), vehicle: saline with Tween-80) 104 % of control.

As to `CC1C(=O)c2cc3c(cc2CCN(C)Cc2c1ccc1c2OCO1)OCO3` (stereo not given), the T/C by setting is: (dose: 5.0 mg/kg/injection, schedule: Q01DX009 (ip), vehicle: saline with Tween-80) 100 % of control; (dose: 10.0 mg/kg/injection, schedule: Q01DX009 (ip), vehicle: saline with Tween-80) 99 % of control; under setting [8], 90 % of control; (dose: 25.0 mg/kg/injection, schedule: Q04DX003 (ip), vehicle: saline with Tween-80) 109 % of control; under setting [6], 90 % of control; (dose: 50.0 mg/kg/injection, schedule: Q04DX003 (ip), vehicle: saline with Tween-80) 104 % of control.

In the case of `Nc1ncnc(N2C(=S)OC3C(O)C(CO)OC32)c1N` (stereo not given), the T/C is 100 % of control under setting [1]; 95 % of control under setting [2]; 95 % of control (dose: 100.0 mg/kg/injection, schedule: Q04DX003 (ip), vehicle: water); 113 % of control under setting [7]; 95 % of control (dose: 400.0 mg/kg/injection, schedule: Q04DX003 (ip), vehicle: water).

Consider `CCCCC1(CC(=O)OCC)SCCN1C(N)=O` (stereo not given), for which the T/C was 100 % of control (dose: 50.0 mg/kg/injection, schedule: Q01DX009 (ip), vehicle: Klucel (hydroxypropylcellulose) (HPC)); 108 % of control under setting [15]; 106 % of control under setting [16].

On to `CC1=CC(C)(C)Nc2ccccc21`, for which the T/C was 108 % of control under setting [15]; 114 % of control under setting [16]; 110 % of control (dose: 400.0 mg/kg/injection, schedule: Q01DX009 (ip), vehicle: Klucel (hydroxypropylcellulose) (HPC)).

In the case of `CC1=NN(C(=O)c2ccncc2)C(=O)C1N=Nc1ccccc1C` (stereo not given), the T/C was 95 % of control under setting [6], 94 % of control under setting [10] and 94 % of control under setting [14].

Regarding `Cn1c(=O)c2c(nc(/N=C/c3ccncc3)n2C)n(C)c1=O`, the T/C runs as follows: under setting [11], 101 % of control; under setting [12], 101 % of control; under setting [13], 101 % of control.

As to `Cc1c2c(cc3c1[nH]c1ccccc13)C(=O)c1ccccc1C2=O`, the T/C is 94 % of control under setting [17]; 95 % of control under setting [18]; 92 % of control and 94 % of control under setting [19]; 87 % of control under setting [20].

On to `CCNCCC1(C)Oc2ccccc2O1`, for which, under “dose: 100.0 mg/kg/injection, schedule: Q01DX001 (ip), vehicle: saline”, the T/C is 97 % of control.

Take `O=C1CSC(c2cc(O)ccc2O)N1c1nncs1` (stereo not given): the T/C under setting [19] was 90 % of control, the T/C under setting [21] is 97 % of control and the T/C under setting [20] was 91 % of control.

Turning to `CCCN(CCC)CCCC#N`, the T/C is 90 % of control under setting [9], 90 % of control under setting [6] and 100 % of control under setting [10].

On to `N#C/C(=C/N)C(N)=O`, for which the T/C by setting is: under setting [6], 104 % of control; under setting [10], 103 % of control; under setting [14], 103 % of control.

With `CCN(CC)CCSS(=O)(=O)CCN(CC)CC`, the T/C is 100 % of control (dose: 50.0 mg/kg/injection, schedule: Q01DX005 (ip), vehicle: saline) and 109 % of control (dose: 100.0 mg/kg/injection, schedule: Q01DX005 (ip), vehicle: saline).

For `CC(C)NC(=O)OCc1c(COC(=O)NC(C)C)c(S(=O)(=O)c2ccccc2)n2c1CCC2`, the T/C reads like this: under setting [18], 89 % of control; under setting [19], 86 % of control; under setting [21], 90 % of control; under setting [20], 93 % of control.

On to `CCOc1ccc(N2CC(=O)N3CCCN3C(=O)C2)cc1`, for which the T/C by setting is: (dose: 6.25 mg/kg/injection, schedule: Q01DX005 (ip), vehicle: saline with Tween-80) 96 % of control; under setting [17], 102 % of control; under setting [18], 100 % of control.

Regarding `O=C(O)CNOCc1ccccc1`, the T/C (dose: 12.5 mg/kg/injection, schedule: Q01DX009 (ip), vehicle: other) is 95 % of control; the T/C (dose: 25.0 mg/kg/injection, schedule: Q01DX009 (ip), vehicle: other) is 102 % of control; the T/C (dose: 50.0 mg/kg/injection, schedule: Q01DX009 (ip), vehicle: other) is 102 % of control; the T/C (dose: 100.0 mg/kg/injection, schedule: Q01DX009 (ip), vehicle: other) was 93 % of control; the T/C (dose: 200.0 mg/kg/injection, schedule: Q01DX009 (ip), vehicle: other) was 89 % of control.
